Test results from PMC10696402 (The Journal of Biological Chemistry, 2023).
Several values for one entry are separate records, joined by “and”; a condition that tells them apart may be missing. Identical values can stand only once. Entries after “also recorded” stand apart in the source; their conditions may differ. Like-named read-outs stand apart in the source and are kept apart here.

Key:
[1] = test system: CYP2C9 Phe114 substituted with Ile and Leu; details: cited from earlier work
CYP2C9 Lys206Ala mutant [2] = biological target: T1, CYP2C9 Lys206Ala mutant (Homo sapiens, UniProt P11712, K206A); assay: Diclofenac 4′-hydroxylation kinetics, Lys206Ala mutant; details: for CLint, diclofenac 4′-hydroxylation: Vmax/Km; for Km at 7 min: human, pH 7.4, Km, diclofenac 4′-hydroxylation
Method: (§1) Mutations were confirmed by DNA sequencing using an Applied Biosystems 3130xl Genetic Analyzer with BigDye Terminator v3.1 Chemistry (Applied Biosystems).
(§2) WT and mutant CYP2C9 proteins and NADPH-CPR were coexpressed according to Boye et al. ([61]). Plasmids were transformed into E. coli DH5R competent cells and single isolated colonies were grown by shaking at 37 °C overnight in Luria-Bertani medium containing ampicillin (100 mg/L) and chloramphenicol (50 mg/L). Overnight cultures of each clone were diluted 1:100 in Terrific broth containing 0.2% Bacto Peptone (w/v), ampicillin (100 mg/L), and chloramphenicol (50 mg/L). Cells were grown at 37 °C in a rotary shaker until the absorbance at 600 nm reached 0.7, when δ-aminolevulinic acid and isopropyl-α-D-thiogalactopyroside were added to final concentrations of 0.5 mM and 1 mM, respectively. Cultures were then grown at 30 °C with shaking at 200 rpm for 24 h. Bacterial cells were harvested, and membrane fractions were prepared as described by Gillam et al. ([62]). The P450 content of bacterial membranes was quantified spectrophotometrically using established methods ([63], [64], [65]). CPR content was measured spectrophotometrically as the NADPH-cytochrome c reductase activity ([66]).
(§3) Incubations were performed in phosphate buffer (100 μl; 0.1 M, pH 7.4) and contained WT or mutant CYP2C9 protein, 3 pmol/ml. […] After preincubation at 37 °C for 5 min, reactions were initiated by the addition of NADPH (1 mM final concentration) containing MgCl2 (4 mM). Following incubation at 37 °C for 30 min, reactions were terminated by the addition of 11.6 M HClO4 (1 μl). Samples were cooled on ice and then centrifuged at 5000g, 4 °C for 10 min. An aliquot (20 μl) of the supernatant fraction was injected into the HPLC column. […] The mobile phase comprised 25 mM phosphate buffer containing 0.02% triethylamine and 5% acetonitrile (phase A) and acetonitrile (phase B), delivered at a flow rate of 1 ml/min. […] Given the favorable sensitivities of these assays, rates of metabolite formation below the lower limits of quantification may be considered negligible.
(§4) The mobile phase comprised 10 mM ammonium formate (pH 3) in 5% acetonitrile (mobile phase A) and acetonitrile (mobile phase B) delivered at a flow rate of 1 ml/min.
(§5) Kinetic data are presented as the mean (± SD) of four separate experiments. […] CLint, which reflects reaction efficiency, was calculated as Vmax/Km.

WT CYP2C9 [3] = biological target: T2, WT CYP2C9 (Homo sapiens, UniProt P11712); assay: Diclofenac 4′-hydroxylation kinetics, recombinant WT CYP2C9; details: for CLint, diclofenac 4′-hydroxylation: Vmax/Km; for Km at 7 min: human, pH 7.4, Km, diclofenac 4′-hydroxylation
Method: as §3, §4
Kinetic data are presented as the mean (± SD) of four separate experiments. Unless otherwise stated, metabolite formation followed sigmoidal kinetics, which was confirmed by comparison of goodness-of-fit parameters from fitting rate of metabolite formation versus substrate concentration data with the equations for empirical kinetic models (Michaelis–Menten, substrate inhibition, biphasic, and positive cooperativity) using the program GraphPad Prism version 7.01 (https://www.graphpad.com, GraphPad Software, Inc). […] CLint, which reflects reaction efficiency, was calculated as Vmax/Km.

WT CYP2C9 [4] = biological target: T2, WT CYP2C9; details: for Vmax, flurbiprofen 4′-hydroxylation / CLint, flurbiprofen 4′-hydroxylation: WT; for CLint, flurbiprofen 4′-hydroxylation: Vmax/Km
Method: (§6) Incubations were performed in phosphate buffer (100 μl; 0.1 M, pH 7.4) and contained WT or mutant CYP2C9 protein, 3 pmol/ml. […] After preincubation at 37 °C for 5 min, reactions were initiated by the addition of NADPH (1 mM final concentration) containing MgCl2 (4 mM). […] Samples were cooled on ice and then centrifuged at 5000g, 4 °C for 10 min. An aliquot (20 μl) of the supernatant fraction was injected into the HPLC column. […] The mobile phase comprised 25 mM phosphate buffer containing 0.02% triethylamine and 5% acetonitrile (phase A) and acetonitrile (phase B), delivered at a flow rate of 1 ml/min. […] Given the favorable sensitivities of these assays, rates of metabolite formation below the lower limits of quantification may be considered negligible.
as §5

CYP2C9 Lys206Ala mutant [5] = biological target: T1, CYP2C9 Lys206Ala mutant; details: for Vmax, flurbiprofen 4′-hydroxylation / CLint, flurbiprofen 4′-hydroxylation: Lys206Ala; for CLint, flurbiprofen 4′-hydroxylation: Vmax/Km
Method: as §1, §2, §3, §5

WT CYP2C9 [6] = biological target: T2, WT CYP2C9; assay: in vitro; details: pH 7.4, Km, flurbiprofen 4′-hydroxylation
Method: as §6, §5

CYP2C9 Lys206Ala mutant [7] = biological target: T1, CYP2C9 Lys206Ala mutant; assay: in vitro; details: pH 7.4, Km, flurbiprofen 4′-hydroxylation
Method: as §1, §2, §3, §5

CYP2C9 = details: cited from earlier work
CYP2C9 homology model = details: homology model based on rabbit CYP2C5 crystal structure; cited from earlier work
[8] = test system: CYP2C9 Phe114 substituted with Ile and Leu; details: Phe114Ile and Phe114Leu vs WT; cited from earlier work
WT CYP2C9 [9] = biological target: T2, WT CYP2C9; details: dapsone 100 μM
Method: Incubations were performed in phosphate buffer (100 μl; 0.1 M, pH 7.4) and contained WT or mutant CYP2C9 protein, 3 pmol/ml. […] After preincubation at 37 °C for 5 min, reactions were initiated by the addition of NADPH (1 mM final concentration) containing MgCl2 (4 mM). Following incubation at 37 °C for 30 min, reactions were terminated by the addition of 11.6 M HClO4 (1 μl). Samples were cooled on ice and then centrifuged at 5000g, 4 °C for 10 min. An aliquot (20 μl) of the supernatant fraction was injected into the HPLC column. […] The mobile phase comprised 25 mM phosphate buffer containing 0.02% triethylamine and 5% acetonitrile (phase A) and acetonitrile (phase B), delivered at a flow rate of 1 ml/min.
The mobile phase comprised 10 mM ammonium formate (pH 3) in 5% acetonitrile (mobile phase A) and acetonitrile (mobile phase B), delivered at a flow rate of 1 ml/min. The initial mobile phase composition was 80% mobile phase A and 20% mobile phase B, which was delivered for 8 min. After this time, the proportion of mobile phase B was increased to 70% over 0.1 min, and then held for 2 min before returning to the initial conditions.
Kinetic data are presented as the mean (± SD) of four separate experiments. Unless otherwise stated, metabolite formation followed sigmoidal kinetics, which was confirmed by comparison of goodness-of-fit parameters from fitting rate of metabolite formation versus substrate concentration data with the equations for empirical kinetic models (Michaelis–Menten, substrate inhibition, biphasic, and positive cooperativity) using the program GraphPad Prism version 7.01 (https://www.graphpad.com, GraphPad Software, Inc).

recombinant CYP2C9 = details: cited from earlier work
[10] = healthy volunteers; cited from earlier work
CYP3A [11] = details: semisimultaneous administration of efavirenz; cited from earlier work
CYP3A4 = test system: CYP3A4; set-up: method as in PMID 19752211; details: coadministration of gefitinib, CYP3A4-humanized mice; cited from earlier work
CYP3A [12] = details: monkeys coadministered quinidine; cited from earlier work
[13] = Lys206Ala vs WT CYP2C9, − dapsone

O=C(O)Cc1ccccc1Nc1c(Cl)cccc1Cl [Diclofenac, diclofenac]
reduction of CLint for diclofenac 4′-hydroxylation (abolished or reduced) [1]: ≥ 89% | Vmax, diclofenac 4′-hydroxylation (CYP2C9 Lys206Ala mutant [2]; + dapsone 100 μM): 4.41 ± 0.12 pmol/min/pmol P450 | CLint, diclofenac 4′-hydroxylation (CYP2C9 Lys206Ala mutant [2]; + dapsone 100 μM): 1.81 ± 0.07 μL/min/pmol P450 | Km at 7 min (CYP2C9 Lys206Ala mutant [2]; + dapsone 100 μM): 2.45 ± 0.13 µM | Km at 7 min (CYP2C9 Lys206Ala mutant [2]; − dapsone): 4.05 ± 0.35 µM | Vmax, diclofenac 4′-hydroxylation (CYP2C9 Lys206Ala mutant [2]; − dapsone): 6.53 ± 0.19 pmol/min/pmol P450 | CLint, diclofenac 4′-hydroxylation (CYP2C9 Lys206Ala mutant [2]; − dapsone): 1.64 ± 0.10 μL/min/pmol P450 | Vmax, diclofenac 4′-hydroxylation (WT CYP2C9 [3]; + dapsone 100 μM): 3.19 ± 0.09 pmol/min/pmol P450 | CLint, diclofenac 4′-hydroxylation (WT CYP2C9 [3]; + dapsone 100 μM): 1.99 ± 0.17 μL/min/pmol P450 | Km at 7 min (WT CYP2C9 [3]; + dapsone 100 μM): 1600 ± 150 nM | Km at 7 min (WT CYP2C9 [3]; − dapsone): 2180 ± 160 nM | Vmax, diclofenac 4′-hydroxylation (WT CYP2C9 [3]; − dapsone): 5.20 ± 0.13 pmol/min/pmol P450 | CLint, diclofenac 4′-hydroxylation (WT CYP2C9 [3]; − dapsone): 2.39 ± 0.16 μL/min/pmol P450

C[C@H](C(=O)O)c1ccc(-c2ccccc2)c(F)c1 [Flurbiprofen, S-flurbiprofen]
Vmax, flurbiprofen 4′-hydroxylation (WT CYP2C9 [4]; + dapsone 100 μM): 5.30 ± 0.09 pmol/min/pmol P450 | CLint, flurbiprofen 4′-hydroxylation (WT CYP2C9 [4]; + dapsone 100 μM): 0.946 ± 0.033 μL/min/pmol P450 | CLint, flurbiprofen 4′-hydroxylation (WT CYP2C9 [4]; − dapsone): 0.407 ± 0.01 μL/min/pmol P450 | Vmax, flurbiprofen 4′-hydroxylation (WT CYP2C9 [4]; − dapsone, mean ± SD): 5.05 pmol/min/pmol P450 and 5.05 ± 0.08 pmol/min/pmol P450 | Km for flurbiprofen 4′-hydroxylation, higher than WT (CYP2C9 Lys206Ala mutant [5]; [13]): 30% | Vmax for flurbiprofen 4′-hydroxylation, lower than WT (CYP2C9 Lys206Ala mutant [5]; [13]): 37% | intrinsic clearance (CLint) of flurbiprofen 4′-hydroxylation, lower than WT (CYP2C9 Lys206Ala mutant [5]; [13]): approximately 50% | Vmax, flurbiprofen 4′-hydroxylation (CYP2C9 Lys206Ala mutant [5]; + dapsone 100 μM): 4.27 ± 0.11 pmol/min/pmol P450 | CLint, flurbiprofen 4′-hydroxylation (CYP2C9 Lys206Ala mutant [5]; + dapsone 100 μM): 0.66 ± 0.03 μL/min/pmol P450 | Vmax, flurbiprofen 4′-hydroxylation (CYP2C9 Lys206Ala mutant [5]; − dapsone): 3.21 ± 0.14 pmol/min/pmol P450 | CLint, flurbiprofen 4′-hydroxylation (CYP2C9 Lys206Ala mutant [5]; − dapsone): 0.20 ± 0.01 μL/min/pmol P450 | Km at 30 min (WT CYP2C9 [6]; + dapsone 100 μM): 5.6 ± 0.31 µM | Km at 30 min (WT CYP2C9 [6]; − dapsone, mean ± SD, four experiments): 12.4 ± 0.44 µM | Km at 30 min (CYP2C9 Lys206Ala mutant [7]; + dapsone 100 μM): 6.6 ± 0.3 µM | Km at 30 min (CYP2C9 Lys206Ala mutant [7]; − dapsone): 16.2 ± 0.6 µM | shift of the 4′-proton of flurbiprofen nearer to the heme Fe in the presence of dapsone (CYP2C9; T1 relaxation rates by NMR): 0.9 Å | increase in binding affinity of flurbiprofen in the presence of dapsone (CYP2C9): approximately 60% | estimate of the shift in the SOM–heme Fe distance of flurbiprofen with dapsone (CYP2C9 homology model): 0.5 Å

CC(=O)C[C@@H](c1ccccc1)c1c(O)c2ccccc2oc1=O [S-warfarin]
reduction of CLint for S-warfarin 7-hydroxylation (abolished or reduced) [8]: ≥ 89%

Nc1ccc(S(=O)(=O)c2ccc(N)cc2)cc1 [dapsone]
effect of dapsone on Vmax of flurbiprofen 4′-hydroxylation (WT CYP2C9 [4]; WT CYP2C9, dapsone 100 μM): unaffected; also recorded: without significantly affecting | increase in catalytic efficiency (CLint) of flurbiprofen 4′-hydroxylation by dapsone (WT CYP2C9 [4]; WT CYP2C9, dapsone 100 μM): 2.3 fold | reduction in the Km for flurbiprofen 4′-hydroxylation by dapsone (WT CYP2C9 [4]; WT CYP2C9, dapsone 100 μM): ~60% | decrease in the Km for naproxen demethylation by dapsone (WT CYP2C9 [9]): 70% | increase in Vmax of naproxen demethylation by dapsone (WT CYP2C9 [9]): 4.8 fold | increase in catalytic efficiency (CLint) of naproxen O-demethylation by dapsone (WT CYP2C9 [9]): 16.5 fold | increase in Vmax of flurbiprofen 4′-hydroxylation by dapsone (recombinant CYP2C9; WT CYP2C9, earlier study): ~60% | dapsone concentration giving maximum activation (recombinant CYP2C9; flurbiprofen 4′-hydroxylation, naproxen O-demethylation, piroxicam 5′-hydroxylation, confirmed here with naproxen (data not shown)): 100 µM | increase in flurbiprofen exposure on coadministration of dapsone [10]: 10%

O=C1Nc2ccc(Cl)cc2[C@@](C#CC2CC2)(C(F)(F)F)O1 [efavirenz]
increase in apparent oral clearance of midazolam (CYP3A [11]): 70%

COc1cc2ncnc(Nc3ccc(F)c(Cl)c3)c2cc1OCCCN1CCOCC1 [gefitinib]
effect on triazolam exposure (CYP3A4): significantly reduce

C=C[C@H]1C[N@@]2CC[C@H]1C[C@@H]2[C@@H](O)c1ccnc2ccc(OC)cc12 [quinidine]
decrease in steady-state plasma concentrations of diclofenac (CYP3A [12]): approximately 50%
